US10858367B2, “Compounds” (GLAXOSMITHKLINE INTELLECTUAL PROPERTY DEVELOPMENT LIMITED, priority 2017, dated 2020)
Structures can show the parent of a compound that is named as a salt.

Columns and labels:
[1] = target: T1, full length G2019 human LRRK2 (Homo sapiens, UniProt Q5S007, R50H); assay: Full length G2019 human LRRK2 Inhibition Mass Spectrometry assay; type: biochemical; conditions: 25 nM LRRK2 enzyme, 25 uM LRRKtide, 2 mM ATP; RapidFire mass spectrometry; read-out: pIC50 in the full length G2019 human LRRK2 Inhibition Mass Spectrometry assay (converted)
T1 construct: made in house; host or cells: HEK293 6E cells transduced with BacMam virus (virus generated in Sf9 cells)
T1 sequence (Q5S007 with tags, fused parts or gaps R50H): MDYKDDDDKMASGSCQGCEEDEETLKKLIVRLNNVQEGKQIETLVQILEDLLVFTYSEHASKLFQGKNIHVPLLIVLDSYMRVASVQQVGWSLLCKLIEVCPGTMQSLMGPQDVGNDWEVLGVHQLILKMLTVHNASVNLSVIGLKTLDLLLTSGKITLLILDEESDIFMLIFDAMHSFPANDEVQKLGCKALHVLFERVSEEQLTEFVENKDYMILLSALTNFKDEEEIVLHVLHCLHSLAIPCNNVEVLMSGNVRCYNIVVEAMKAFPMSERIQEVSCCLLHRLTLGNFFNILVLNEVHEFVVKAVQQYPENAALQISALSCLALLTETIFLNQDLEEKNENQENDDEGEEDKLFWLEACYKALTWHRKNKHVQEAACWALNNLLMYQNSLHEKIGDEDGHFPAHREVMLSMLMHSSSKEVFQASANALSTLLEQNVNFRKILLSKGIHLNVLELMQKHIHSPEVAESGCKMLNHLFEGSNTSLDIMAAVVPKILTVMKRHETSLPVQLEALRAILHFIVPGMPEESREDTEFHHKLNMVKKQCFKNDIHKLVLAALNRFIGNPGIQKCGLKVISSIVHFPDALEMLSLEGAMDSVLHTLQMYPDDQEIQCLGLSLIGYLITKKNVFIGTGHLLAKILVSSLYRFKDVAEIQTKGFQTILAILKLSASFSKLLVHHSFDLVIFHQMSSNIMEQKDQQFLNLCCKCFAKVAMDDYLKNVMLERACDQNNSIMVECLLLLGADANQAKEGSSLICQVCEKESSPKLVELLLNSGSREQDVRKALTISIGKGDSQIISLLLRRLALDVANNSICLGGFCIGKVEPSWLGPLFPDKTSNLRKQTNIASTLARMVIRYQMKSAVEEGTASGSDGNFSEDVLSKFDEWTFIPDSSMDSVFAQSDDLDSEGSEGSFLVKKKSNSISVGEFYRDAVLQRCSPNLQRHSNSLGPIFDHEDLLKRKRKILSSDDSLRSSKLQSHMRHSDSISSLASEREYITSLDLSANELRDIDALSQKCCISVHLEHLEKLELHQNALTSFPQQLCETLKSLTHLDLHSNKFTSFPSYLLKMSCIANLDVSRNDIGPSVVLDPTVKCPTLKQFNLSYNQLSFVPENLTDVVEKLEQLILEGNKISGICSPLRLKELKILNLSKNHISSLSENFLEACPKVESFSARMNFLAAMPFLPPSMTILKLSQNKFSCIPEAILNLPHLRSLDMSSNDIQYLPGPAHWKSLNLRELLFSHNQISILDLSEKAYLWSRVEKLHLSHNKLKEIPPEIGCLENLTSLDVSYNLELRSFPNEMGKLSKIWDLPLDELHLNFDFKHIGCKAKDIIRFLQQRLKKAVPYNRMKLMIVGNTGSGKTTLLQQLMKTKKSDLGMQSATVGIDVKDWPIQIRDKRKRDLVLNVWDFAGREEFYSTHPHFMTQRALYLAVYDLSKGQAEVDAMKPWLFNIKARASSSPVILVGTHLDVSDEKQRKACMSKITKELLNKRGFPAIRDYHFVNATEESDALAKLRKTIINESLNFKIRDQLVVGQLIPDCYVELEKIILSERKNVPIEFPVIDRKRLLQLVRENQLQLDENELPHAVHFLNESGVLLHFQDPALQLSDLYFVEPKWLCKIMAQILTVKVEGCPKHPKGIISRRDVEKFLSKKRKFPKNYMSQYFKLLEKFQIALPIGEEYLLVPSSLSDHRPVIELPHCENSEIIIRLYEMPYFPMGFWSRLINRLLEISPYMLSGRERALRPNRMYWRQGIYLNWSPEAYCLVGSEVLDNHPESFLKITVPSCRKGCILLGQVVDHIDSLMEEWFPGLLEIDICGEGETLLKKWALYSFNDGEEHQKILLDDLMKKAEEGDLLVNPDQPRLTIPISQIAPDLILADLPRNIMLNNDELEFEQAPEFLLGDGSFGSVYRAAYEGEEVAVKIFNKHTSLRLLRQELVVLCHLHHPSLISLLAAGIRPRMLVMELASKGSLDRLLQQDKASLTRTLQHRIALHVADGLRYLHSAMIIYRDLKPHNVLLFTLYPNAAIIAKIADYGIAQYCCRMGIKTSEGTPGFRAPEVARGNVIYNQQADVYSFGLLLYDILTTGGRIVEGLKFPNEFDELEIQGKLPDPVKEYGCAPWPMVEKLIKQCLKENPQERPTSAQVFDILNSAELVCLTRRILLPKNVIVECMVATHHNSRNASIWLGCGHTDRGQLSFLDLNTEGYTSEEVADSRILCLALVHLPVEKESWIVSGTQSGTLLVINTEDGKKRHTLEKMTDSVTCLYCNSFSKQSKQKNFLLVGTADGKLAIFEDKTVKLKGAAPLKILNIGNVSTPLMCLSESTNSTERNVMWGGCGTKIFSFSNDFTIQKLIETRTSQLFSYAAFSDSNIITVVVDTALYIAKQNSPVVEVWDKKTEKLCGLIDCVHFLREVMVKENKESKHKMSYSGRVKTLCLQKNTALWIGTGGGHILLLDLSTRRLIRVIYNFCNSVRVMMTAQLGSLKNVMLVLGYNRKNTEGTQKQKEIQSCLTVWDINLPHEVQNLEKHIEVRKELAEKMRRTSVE
Excerpt: a. Full Length G2019 Human LRRK2 Inhibition Mass Spectrometry Assay
This assay for Leucine Rich Repeat Kinase 2 (LRRK2) inhibition is based on the direct measurement of the peptide ‘LRRKtide’ (LRRKtide: RLGRDKYKT*LRQIRQ and “*” refers to the site of phosphorylation.) and phosphorylated ‘LRRKtide’ using a high throughput RapidFire mass spectrometry assay. Inhibitors are compounds that reduce the conversion of LRRKtide to phospho-LRRKtide.
Human G2019 LRRK2 Plasmid Preparation
Primers used for PCR cloning: • pHTBV-F:SEQ ID No: 1 • LRRK2 wt-F1:SEQ ID No: 2 • LRRK2 wt-R1: SEQ ID No: 3 • LRRK2 wt-F2: SEQ ID No: 4 • LRRK2 wt-R2: SEQ ID No: 5 • LRRK2 wt-F3:SEQ ID No: 6 • pHTBV-R: SEQ ID No: 7 pHTBV1-N-Flag-hu LRRK2 was generated by PCR amplifying the full length LRRK2 sequence with N terminal Flag tag from pcDNA3.1(+)_Human_LRRK2 (NCBI Reference Sequence: NP_940980.3) with the primers described above, and cloned into pHTBV1mcs3 vector between BamHI and KpnI sites.
The G2019 full length Flag-LRRK2 coding sequence is SEQ ID No: 8.
The translated amino acid sequence for human G2019 full length N terminal flag tagged LRRK2 protein is SEQ ID No: 9.
Protein Expression & Purification a) Expression of Flag Tagged Full Length G2019 Human LRRK2
HEK293 6E cells were incubated in a 37° C. incubator with a humidified atmosphere of 5% CO2 on an orbital shaker rotating at 110 rpm. On the day of transduction, the cell viability was higher than 98% and the cell density was in the range of 1×10^6˜1.5×10^6 cells/ml. HEK293 6E cells were centrifuged at 1,000 rpm for 10 min, and then the cells were resuspended in fresh Freestyle 293 expression medium (Invitrogen: 12338) with 0.1% F-68(Invitrogen: 24040-032) but without antibiotics (G418) at density of 1×10^6 cells/ml. BacMam virus with Flag-hu LRRK2 (genotypically normal) gene was centrifuged at 40,000 g for 2 hours, then resuspended in fresh Freestyle 293 expression medium. The resuspended virus was added into the cells in at MOI of 10. The cells were incubated in a 37° C. incubator with a humidified atmosphere of 5% CO2 in air on an orbital shaker rotating at 110 rpm. Cultures were harvested at approximately 48 hours post-transduction by centrifugation at 4,000 rpm for 20 min and pellets were frozen for purification. […]
b) Purification of Flag Tagged Full Length G2019 Human LRRK2
The suspended cells were lysed by sonication on ice for 30 min (2 secs on/4 sec off, 20% amplitude), and centrifuged at 10,000 rpm for 30 minutes at 4° C. The supernatant was incubated with 1 mL per litre of cell culture of anti-Flag magnetic beads (Sigma-Aldrich: M8823) at 4° C. for 3 hours, then the beads were washed by 5 mL (5 column volume) binding buffer (50 mM Tris pH7.5@ 4 C, 500 mM NaCl, 0.5 mM EDTA, 0.1% TritonX-100, 10% glycerol, freshly add 2 mM DTT) for three times. The Flag tagged LRRK2 proteins were eluted by Elution buffer (50 mM Tris pH7.5@ 4 C, 500 mM NaCl, 0.5 mM EDTA, 0.1% TritonX-100, 10% glycerol, freshly add 2 mM DTT, 250 ug/ml Flag peptide (Sigma-Aldrich:F3290)) at 4° C. for 2 hours. Flag peptide was removed by Zeba Spin Desalting Columns, 7K MWCO (Thermo-Fisher: 89893) and the buffer of eluted LRRK2 proteins was exchanged into Storage Buffer (50 mM Tris pH7.5@4 C, 150 mM NaCl, 0.5 mM EDTA, 0.02% Triton X-100, 2 mM DTT and 50% Glycerol) using Amicon Ultra Centrifugal Filter Units (100 kD) (Merck: UFC910096). Fractions containing LRRK2 proteins were pooled, aliquoted and stored at −80° C. Protein concentration was determined by Bradford protein assay, and protein purity was analyzed by NuPAG Novex 4-12% Bis-Tris Protein Gels (Invitrogen: NP0322BOX).
Assay Protocol • 1) A 10 mM test compound was dissolved in 100% DMSO and serially diluted 1 in 4. 100 nL of this dilution series was then added to a 384 well, v bottom polypropylene plate, excluding columns 6 and 18. 100 nL of DMSO was added to columns 6 and 18 as controls wells. […]

[2] = target: T2, LRRK2 Ser935 phosphorylation in SH-SY5Y cells over-expressing recombinant full length LRRK2 (Homo sapiens, UniProt Q5S007); assay: Recombinant cellular LRRK2 AlphaScreen assay; type: cell-based; conditions: human neuroblastoma SH-SY5Y cells, BacMam full length LRRK2, 60 minutes with compound, read-out: pIC50 in the recombinant cellular LRRK2 AlphaScreen assay (converted)
T2 construct: A BacMam virus expressing full length recombinant LRRK2 was purchased from Invitrogen; host or cells: SH-SY5Y human neuroblastoma cells transduced with BacMam LRRK2 virus
T2 sequence (Q5S007 whole entry): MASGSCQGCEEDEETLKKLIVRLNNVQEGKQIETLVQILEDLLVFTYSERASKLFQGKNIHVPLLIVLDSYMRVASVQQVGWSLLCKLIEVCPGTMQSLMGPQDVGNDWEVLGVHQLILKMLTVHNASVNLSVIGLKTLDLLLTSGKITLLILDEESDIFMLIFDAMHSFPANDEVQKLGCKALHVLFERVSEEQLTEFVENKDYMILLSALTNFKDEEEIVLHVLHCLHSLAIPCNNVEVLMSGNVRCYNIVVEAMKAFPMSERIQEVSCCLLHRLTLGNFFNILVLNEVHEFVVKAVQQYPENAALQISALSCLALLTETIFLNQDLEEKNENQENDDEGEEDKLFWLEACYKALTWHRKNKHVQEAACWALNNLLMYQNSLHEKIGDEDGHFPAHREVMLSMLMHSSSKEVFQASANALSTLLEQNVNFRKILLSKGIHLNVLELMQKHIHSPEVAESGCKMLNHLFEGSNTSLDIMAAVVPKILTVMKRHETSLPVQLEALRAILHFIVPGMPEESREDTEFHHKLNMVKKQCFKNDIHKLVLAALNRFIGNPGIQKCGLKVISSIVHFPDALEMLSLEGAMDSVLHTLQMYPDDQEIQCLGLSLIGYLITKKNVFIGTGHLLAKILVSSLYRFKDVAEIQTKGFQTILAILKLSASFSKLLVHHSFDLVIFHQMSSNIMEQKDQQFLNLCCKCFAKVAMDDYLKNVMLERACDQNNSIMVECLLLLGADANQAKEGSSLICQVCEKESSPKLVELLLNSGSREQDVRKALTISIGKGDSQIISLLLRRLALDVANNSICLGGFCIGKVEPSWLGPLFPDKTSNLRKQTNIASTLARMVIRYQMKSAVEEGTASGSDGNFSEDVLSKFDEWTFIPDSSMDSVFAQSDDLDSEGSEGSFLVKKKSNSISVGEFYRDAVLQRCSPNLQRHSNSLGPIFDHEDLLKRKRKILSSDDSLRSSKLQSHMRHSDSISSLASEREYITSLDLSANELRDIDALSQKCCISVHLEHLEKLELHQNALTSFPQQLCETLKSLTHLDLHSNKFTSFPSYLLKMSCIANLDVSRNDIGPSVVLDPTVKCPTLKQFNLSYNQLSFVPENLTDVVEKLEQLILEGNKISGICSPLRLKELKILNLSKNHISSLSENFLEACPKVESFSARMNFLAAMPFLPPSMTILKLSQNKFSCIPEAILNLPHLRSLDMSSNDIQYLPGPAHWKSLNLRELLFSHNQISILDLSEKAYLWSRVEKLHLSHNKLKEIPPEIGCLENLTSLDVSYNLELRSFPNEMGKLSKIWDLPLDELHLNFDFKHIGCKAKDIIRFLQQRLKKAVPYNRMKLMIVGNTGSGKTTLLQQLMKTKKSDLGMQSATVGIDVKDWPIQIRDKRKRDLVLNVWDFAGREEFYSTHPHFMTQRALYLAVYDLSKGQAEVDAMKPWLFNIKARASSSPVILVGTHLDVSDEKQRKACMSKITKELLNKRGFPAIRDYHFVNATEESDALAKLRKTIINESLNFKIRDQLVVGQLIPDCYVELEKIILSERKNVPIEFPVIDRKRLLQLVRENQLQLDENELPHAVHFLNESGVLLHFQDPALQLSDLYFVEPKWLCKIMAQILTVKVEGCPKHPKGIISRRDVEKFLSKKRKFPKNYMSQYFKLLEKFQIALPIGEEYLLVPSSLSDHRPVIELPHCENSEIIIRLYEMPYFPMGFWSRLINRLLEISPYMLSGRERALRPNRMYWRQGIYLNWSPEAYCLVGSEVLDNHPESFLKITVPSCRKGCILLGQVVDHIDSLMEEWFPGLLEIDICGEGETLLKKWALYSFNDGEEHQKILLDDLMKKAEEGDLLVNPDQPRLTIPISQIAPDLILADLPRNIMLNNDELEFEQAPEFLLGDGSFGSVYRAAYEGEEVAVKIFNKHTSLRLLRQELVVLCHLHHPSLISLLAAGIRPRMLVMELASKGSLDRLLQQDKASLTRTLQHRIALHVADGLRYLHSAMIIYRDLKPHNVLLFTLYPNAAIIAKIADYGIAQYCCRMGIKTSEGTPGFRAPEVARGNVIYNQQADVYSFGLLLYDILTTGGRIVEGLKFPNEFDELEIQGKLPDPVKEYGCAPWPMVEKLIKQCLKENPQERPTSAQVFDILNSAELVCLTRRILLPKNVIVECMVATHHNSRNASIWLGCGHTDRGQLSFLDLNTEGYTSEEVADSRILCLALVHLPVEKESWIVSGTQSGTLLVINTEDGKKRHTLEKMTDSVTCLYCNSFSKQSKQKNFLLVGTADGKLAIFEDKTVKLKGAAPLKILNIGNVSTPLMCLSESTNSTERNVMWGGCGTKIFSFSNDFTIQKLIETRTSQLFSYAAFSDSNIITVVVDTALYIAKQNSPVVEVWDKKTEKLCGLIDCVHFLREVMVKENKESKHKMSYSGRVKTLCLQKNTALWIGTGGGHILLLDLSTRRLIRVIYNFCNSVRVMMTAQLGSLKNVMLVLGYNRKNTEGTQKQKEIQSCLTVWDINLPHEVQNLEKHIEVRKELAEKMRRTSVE
Method in brief: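 SH-SY5Y cells transduced with BacMam full-length human LRRK2 (MOI 50) for 24 h, then treated with compound (top final 10 μM) for 60 min at 37° C. Lysate pSer935 LRRK2 quantified by AlphaScreen using anti-pS935 and total-LRRK2 antibodies. Values from sigmoidal dose-response fit.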

| SMILES | IC50 [1] | IC50 [2] |
| --- | --- | --- |
| COc1nc(N2C[C@H]3C[C@@H]2CO3)cc(-n2ncc3cc(C)c(C4CCN(CCC(=O)O)CC4F)cc32)n1 (single isomer, unassigned) [Example E158] | ≤ 100 nM | ≤ 10 nM |
| COc1nc(N2C[C@@H]3C[C@H]2CO3)cc(-n2ncc3cc(C)c(C4CCN(CCC(=O)O)CC4F)cc32)n1 (single isomer, unassigned) [Example E160] | ≤ 100 nM | ≤ 10 nM |
| Cc1nc(N2C[C@]3(CO)C[C@H]2CO3)cc(-n2ncc3cc(C)c(C4CCN([C@H]5CCOC5)CC4)cc32)n1 [Example E143, ((1S,4S)-5-(2-methyl-6-(5-methyl-6-(1-((S)-tetrahydrofuran-3-yl)piperidin-4-yl)-1H-indazol-1-yl)pyrimidin-4-yl)-2-oxa-5-azabicyclo[2.2.1]heptan-1-yl)methanol] | ≤ 100 nM | ≤ 1000 nM |
| Cc1nc(N2C[C@H]3C[C@@H]2CO3)cc(-n2ncc3cc(C)c(C4CCN(CCC(=O)O)CC4)cc32)n1 [Example E162, 3-(4-(1-(6-((1R,4R)-2-oxa-5-azabicyclo[2.2.1]heptan-5-yl)-2-methylpyrimidin-4-yl)-5-methyl-1H-indazol-6-yl)piperidin-1-yl)propanoic Acid] | ≤ 100 nM | ≤ 1000 nM |
| COc1nc(N2C[C@H]3C[C@@H]2CO3)cc(-n2ncc3cc(C)c(C4CCN(CCC(=O)O)CC4)cc32)n1 [Example E164, 3-(4-(1-(6-((1R,4R)-2-oxa-5-azabicyclo[2.2.1]heptan-5-yl)-2-methoxypyrimidin-4-yl)-5-methyl-1H-indazol-6-yl)piperidin-1-yl)propanoic Acid] | ≤ 100 nM | ≤ 1000 nM |
| COc1nc(N2CC3(CO)CC2CO3)cc(-n2ncc3cc(C)c(C4CCN(C5COC5)CC4)cc32)n1 (stereo not shown) [Example E167, (5-(2-methoxy-6-(5-methyl-6-(1-(oxetan-3-yl)piperidin-4-yl)-1H-indazol-1-yl)pyrim-idin-4-yl)-2-oxa-5-azabicyclo[2.2.1]heptan-1-yl)methanol] | ≤ 10 nM | ≤ 10 nM |
| Cc1nc(N2C[C@H]3C[C@@H]2CO3)cc(-n2ncc3cc(C)c(C4CCN(CCS(C)(=O)=O)CC4)cc32)n1 [Example E170, (1R,4R)-5-(2-methyl-6-(5-methyl-6-(1-(2-(methylsulfonyl)ethyl)piperidin-4-yl)-1H-indazol-1-yl)pyrimidin-4-yl)-2-oxa-5-azabicyclo[2.2.1]heptane] | ≤ 100 nM |  |
| Cc1nc(N2C[C@@]3(CO)C[C@@H]2CO3)cc(-n2ncc3cc(C)c(C4CCOCC4)cc32)n1 [Example E173, ((1R,4R)-5-(2-methyl-6-(5-methyl-6-(tetrahydro-2H-pyran-4-yl)-1H-indazol-1-yl)pyrimidin-4-yl)-2-oxa-5-azabicyclo[2.2.1]heptan-1-yl)methanol] | ≤ 100 nM |  |

Results, then the molecule that gave them:

| IC50 [1] | IC50 [2] | SMILES |
| --- | --- | --- |
| ≤ 100 nM | ≤ 1000 nM | Cc1nc(N2CC3OCC2C3O)cc(-n2ncc3cc(C)c(C4CCN([C@H]5CCOC5)CC4)cc32)n1 (single isomer, unassigned) [Example E176, TFA Salt] |
| ≤ 100 nM | ≤ 10 nM | COc1nc(N2C[C@H]3C[C@@H]2CO3)cc(-n2ncc3cc(C)c(C4CCN(CCS(C)(=O)=O)CC4)cc32)n1 [Example E174, (1R,4R)-5-(2-methoxy-6-(5-methyl-6-(1-(2-(methylsulfonyl)ethyl)piperidin-4-yl)-1H-indazol-1-yl)pyrimidin-4-yl)-2-oxa-5-azabicyclo[2.2.1]heptane] |
| ≤ 100 nM | ≤ 1000 nM | COc1nc(N2C[C@H]3C[C@@H]2CO3)cc(-n2ncc3cc(C)c(C4C5CN([C@H]6CCOC6)CC54)cc32)n1 (stereo partly drawn) [Example E175, (1R,4R)-5-(2-methoxy-6-(5-methyl-6-(3-((S)-tetrahydrofuran-3-yl)-3-azabicyclo[3.1.0]hexan-6-yl)-1H-indazol-1-yl)pyrimidin-4-yl)-2-oxa-5-azabicyclo[2.2.1]heptane] |
| ≤ 10 nM | ≤ 10 nM | COc1nc(N2C[C@@]3(CO)C[C@@H]2CO3)cc(-n2ncc3cc(C)c(C4CCOCC4)cc32)n1 [Example E178, ((1R,4R)-5-(2-methoxy-6-(5-methyl-6-(tetrahydro-2H-pyran-4-yl)-1H-indazol-1-yl)pyrimidin-4-yl)-2-oxa-5-azabicyclo[2.2.1]heptan-1-yl)methanol] |
